The values below come from patent US20250075337A1, “SATURATED QUATERNARY AMMONIUM COMPOUNDS, GLUTARALDEHYDE, AND TETRAKIS(HYDROXYMETHYL)PHOSPHONIUM SULFATE FOR CORROSION INHIBITION, CLEANING, AND BIOCIDAL EFFICACY IN HYDROGEN SYSTEMS” (ChampionX LLC, priority 2023, published 2025).

A short description of this assay: Bubble cell test, corrosion rate by linear polarization resistance (LPR). The following applies: 80° C., CO2 saturated 3% NaCl brine; 100 ppm active; about 15 hours after CI injection; versus uninhibited carbon steel electrode. The protocol:
Examples were conducted to assess the corrosion inhibition of a saturated alkyl diquaternary compounds of structure (IIIa) as described above using a bubble cell test to assess corrosion performance using linear polarization resistance testing. The corrosion inhibitor (CI) was evaluated without combination of any other chemistries or formulation components.
The corrosion rate was measured by Linear Polarization Resistance (LPR) techniques. The working electrode used was carbon steel (C1018 grade). The counter and reference electrodes were both 1018 carbon steel. The electrodes were all cleaned and polished prior to testing.
The test conditions included: 80° C., CO2 saturated fluids with 3% NaCl brine (100% brine) with continuous CO2 sparge, atmospheric pressure. A pre-corrosion time (i.e. with no corrosion inhibitor) was carried out for about 3 hours before 500 ppm of a 20% active chemistry in solvent blend was added. This is equivalent to 100 ppm of the active chemistry being introduced into the test cell. The inhibited corrosion rate at about 15 hours after CI chemical injection was noted and a percentage inhibition determined by comparing with the corrosion rate of a carbon steel electrode under otherwise the same conditions in the absence of chemical corrosion inhibitor after the same time of exposure to the corrosive environment.

As to `CCCCCCCCCCCCCCCCCC[N+](C)(C)CC(O)C[N+](CCO)(CCO)CCO` (stereo not shown) [CI Structure IIIa], the “% Protection” value is over 99%.
